Results from ChEMBL document CHEMBL1201862, “PubChem BioAssay data set” (2004).
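Method: 48-hour compound exposure of cells in 96-well plates, five concentrations, linear interpolation of endpoints. At the GI50, growth is halved.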 Active and inactive are the calls of the source. Rule as the data show it: active = GI50 up to about 1.1 µM and inactive = higher.

What was measured:
Test in all cases: growth of human tumour cells (NCI), 48 h
CAKI-1 = system: CAKI-1
MDA-N = system: MDA-N
SR = system: SR
NCI-H23 = system: NCI-H23
RXF 393 = system: RXF 393
TK-10 = system: TK-10
ACHN = system: ACHN
HT-29 = system: HT-29
M14 = system: M14
NCI-H460 = system: NCI-H460
HCT-116 = system: HCT-116
SF-268 = system: SF-268
COLO 205 = system: COLO 205
HOP-92 = system: HOP-92
EKVX = system: EKVX
A498 = system: A498
SNB-19 = system: SNB-19
MDA-MB-435 = system: MDA-MB-435
KM12 = system: KM12
Hs-578T = system: Hs-578T

Measured: GI50

COc1ccc(-n2nnc3c(C#N)c(-c4ccccc4)c(C)n3c2=O)cc1
inactive: CAKI-1 45.4 µM | MDA-N > 100 µM | SR 7.45 µM | NCI-H23 80.4 µM | RXF 393 28.4 µM | TK-10 84.7 µM | ACHN 30.1 µM | HT-29 43.9 µM | M14 81.8 µM | NCI-H460 51.4 µM | HCT-116 43.2 µM | SF-268 83.4 µM | COLO 205 33.7 µM | HOP-92 23.8 µM | EKVX 62.2 µM | A498 38.1 µM | SNB-19 78.7 µM | MDA-MB-435 > 100 µM | KM12 48.9 µM | Hs-578T > 100 µM

CCNc1ncnc2sc(SCc3ccccc3)nc12
inactive: CAKI-1 71.6 µM | MDA-N > 100 µM | SR 33.8 µM | NCI-H23 83.8 µM | RXF 393 > 100 µM | TK-10 60.7 µM | ACHN 70.6 µM | HT-29 58.1 µM | M14 > 100 µM | NCI-H460 46.2 µM | HCT-116 85.9 µM | SF-268 > 100 µM | COLO 205 36.1 µM | HOP-92 19.6 µM | EKVX 42 µM | A498 61.9 µM | SNB-19 > 100 µM | MDA-MB-435 > 100 µM | KM12 48.4 µM | Hs-578T > 100 µM

CC(=O)NNc1nc(C)c(C(=O)NNC(=O)C(=O)Nc2nc3ccc([N+](=O)[O-])cc3s2)s1
inactive: CAKI-1 30.5 µM | MDA-N 45.9 µM | SR 26.4 µM | NCI-H23 44.1 µM | RXF 393 > 59.8 µM | TK-10 50.4 µM | ACHN 50.4 µM | HT-29 54.7 µM | M14 > 67.8 µM | NCI-H460 49 µM | HCT-116 > 62.5 µM | SF-268 49.1 µM | COLO 205 > 81.1 µM | HOP-92 28.8 µM | EKVX 30.7 µM | A498 33.6 µM | SNB-19 81.7 µM | MDA-MB-435 60.4 µM | KM12 33.9 µM | Hs-578T 51.6 µM

O=C(CNC(=O)OCc1ccccc1)NCCCCC(NC(=O)OCc1ccccc1)C(=O)O (stereo not given)
inactive: CAKI-1 > 100 µM | MDA-N > 100 µM | SR > 100 µM | NCI-H23 > 100 µM | RXF 393 > 100 µM | TK-10 > 100 µM | ACHN > 100 µM | HT-29 > 100 µM | M14 > 100 µM | NCI-H460 > 100 µM | HCT-116 > 100 µM | SF-268 > 100 µM | COLO 205 > 100 µM | HOP-92 > 100 µM | EKVX > 100 µM | A498 > 100 µM | SNB-19 > 100 µM | MDA-MB-435 > 100 µM | KM12 > 100 µM | Hs-578T > 100 µM

CS(=O)(=O)OCCCCOS(=O)(=O)CF
inactive: CAKI-1 > 72.1 µM | MDA-N > 100 µM | SR > 73.3 µM | NCI-H23 > 100 µM | RXF 393 > 100 µM | TK-10 > 100 µM | ACHN 52.6 µM | HT-29 > 100 µM | M14 > 100 µM | NCI-H460 56 µM | HCT-116 > 100 µM | SF-268 > 100 µM | COLO 205 > 100 µM | HOP-92 > 49.5 µM | EKVX > 100 µM | A498 > 100 µM | SNB-19 > 100 µM | MDA-MB-435 > 100 µM | KM12 > 100 µM | Hs-578T > 100 µM

Cc1cccc(NC(=O)O/N=C(\Cl)C(C)C)c1
inactive: CAKI-1 1.74 µM | MDA-N 10.5 µM | SR 1.38 µM | NCI-H23 15.1 µM | RXF 393 13.9 µM | TK-10 14 µM | ACHN 2.02 µM | HT-29 10.4 µM | M14 4.58 µM | NCI-H460 16.8 µM | HCT-116 3.37 µM | SF-268 20 µM | COLO 205 2.01 µM | HOP-92 1.66 µM | EKVX 6.03 µM | A498 18.5 µM | SNB-19 20.3 µM | MDA-MB-435 14.5 µM | KM12 19.4 µM | Hs-578T 23.1 µM

O=C1C/C(=C\c2ccccc2)C(=O)c2ccccc2N1
inactive: CAKI-1 18.4 µM | MDA-N 22.9 µM | SR 42.8 µM | NCI-H23 24.7 µM | RXF 393 19.6 µM | TK-10 32.9 µM | ACHN 25.1 µM | HT-29 18.4 µM | M14 23.2 µM | NCI-H460 29.3 µM | HCT-116 14.7 µM | SF-268 38.2 µM | COLO 205 20 µM | HOP-92 29.9 µM | EKVX 24.1 µM | A498 18.8 µM | SNB-19 14.9 µM | MDA-MB-435 23.3 µM | KM12 22.6 µM | Hs-578T 60.1 µM
